From ChEMBL document CHEMBL1157185, “Design and synthesis of benzofuranic derivatives as new ligands at the melatonin-binding site MT3” (Bioorg Med Chem, 2008)

Columns and labels:
[1] = Inhibition of MT3 melatonin binding site from hamster brain membrane; parameters: species or system Cricetinae
[2] = Selectivity ratio, IC50 for human MT2 melatonin receptor to IC50 for hamster MT3 melatonin binding site
[3] = Selectivity ratio, IC50 for human MT1 melatonin receptor to IC50 for hamster MT3 melatonin binding site
[4] = molecular target: Melatonin receptor type 1A (Homo sapiens, UniProt P48039); assay: Displacement of 2-[125I]iodomelatonin from human MT1 receptor expressed in HEK293 cells; assay type: cell-based
Chain of Melatonin receptor type 1A (P48039 whole entry): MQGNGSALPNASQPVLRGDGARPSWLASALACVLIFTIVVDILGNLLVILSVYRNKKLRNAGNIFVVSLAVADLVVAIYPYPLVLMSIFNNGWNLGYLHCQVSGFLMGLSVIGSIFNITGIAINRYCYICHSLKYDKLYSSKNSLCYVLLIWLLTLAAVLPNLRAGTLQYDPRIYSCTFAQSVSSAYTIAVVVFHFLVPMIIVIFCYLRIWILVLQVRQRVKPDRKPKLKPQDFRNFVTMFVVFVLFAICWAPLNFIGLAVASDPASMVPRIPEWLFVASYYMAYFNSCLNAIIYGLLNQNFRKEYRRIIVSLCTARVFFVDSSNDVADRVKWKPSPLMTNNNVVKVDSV

[5] = molecular target: T1, Melatonin receptor type 1B (Homo sapiens, UniProt P49286); assay: Displacement of 2-[125I]iodomelatonin from human MT2 receptor expressed in HEK293 cells; assay type: cell-based
T1 sequence (P49286 whole entry): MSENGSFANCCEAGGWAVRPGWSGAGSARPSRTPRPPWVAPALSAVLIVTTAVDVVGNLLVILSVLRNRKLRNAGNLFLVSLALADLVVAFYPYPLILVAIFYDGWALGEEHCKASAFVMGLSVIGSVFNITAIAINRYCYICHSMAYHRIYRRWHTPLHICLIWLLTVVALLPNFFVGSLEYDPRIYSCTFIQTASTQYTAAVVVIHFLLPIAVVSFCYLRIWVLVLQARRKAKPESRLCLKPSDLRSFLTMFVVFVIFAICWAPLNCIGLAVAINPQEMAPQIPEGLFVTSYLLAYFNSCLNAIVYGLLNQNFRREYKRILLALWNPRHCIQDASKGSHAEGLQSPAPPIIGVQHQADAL

Compound | Ki [1] [nM] | IC50 [1] [nM] | Ratio IC50 [2] | Ratio IC50 [3] | IC50 [4] [nM] | IC50 [5] [nM]
COc1cc2c(cc1OC)-c1c(c3cc(O)ccc3n1C)C2=O | 0.19 |  |  |  |  | 
COC(=O)Nc1ccc2occ(CCNC(=O)c3ccco3)c2c1 |  | 56 | > 178 | > 178 | > 10000 | > 10000
COC(=O)Nc1ccc2occ(CCNC(=O)C(C)C)c2c1 |  | 23 | 199 | 232 | 5350 | 4580
COC(=O)c1ccc2occ(CCNC(C)=O)c2c1 |  | 14 |  |  |  | 
COc1ccc2c(c(CCNC(C)=O)c(I)n2C)c1[N+](=O)[O-] | 0.3 |  |  |  |  | 
CNC(=O)c1ccc2occ(CCNC(=O)C3CCCC3)c2c1 |  |  |  |  | > 10000 | > 10000
C=CCC(=O)NCCc1coc2ccc(NC(=O)OC)cc12 |  | 11 | 51 | 244 | 2690 | 560
COC(=O)c1ccc2occ(CCNC(=O)C3CCCC3)c2c1 |  | 18 | 21.6 | 215 | 3880 | 389
CC(=O)NCCc1coc2ccc(NC(=O)C(F)(F)F)cc12 |  |  |  |  | > 10000 | 2000
COC(=O)c1ccc2occ(CCNC(=O)C(C)C)c2c1 |  | 65 |  |  |  | 
CC(=O)NCCc1coc2ccc(C(N)=O)cc12 |  | 82 | 12 | > 122 | > 10000 | 1000
COc1cc2nc(N3CCN(C(=O)c4ccco4)CC3)nc(N)c2cc1OC [PRAZOSIN] |  | 7.8 |  |  |  | 
CNC(=O)c1ccc2occ(CCNC(=O)C3CC3)c2c1 |  | 41 | > 244 | > 29 | 1220 | > 10000
NC(=O)c1ccc2occ(CCNC(=O)c3ccco3)c2c1 |  | 67 | > 149 | > 149 | > 10000 | > 10000
COc1ccc2occ(CCNC(C)=O)c2c1 |  | 64 |  |  |  | 
CNC(=O)c1ccc2occ(CCNC(C)=O)c2c1 |  | 12 | > 83 | 16 | 189 | > 1000
COC(=O)Nc1ccc2[nH]cc(CCNC(C)=O)c2c1 |  |  |  |  | 1000 | 4000
COC(=O)c1ccc2occ(CCNC(=O)c3ccco3)c2c1 |  | 53 | > 188 | > 188 | > 10000 | > 10000
COC(=O)Nc1ccc2occ(CCNC(=O)C3CC3)c2c1 |  | 24 | 245 | 340 | 8180 | 5900
COC(=O)Nc1ccc2occ(CCNC(=O)C3CCCC3)c2c1 |  |  |  |  | 5320 | 5320
COC(=O)Nc1ccc2occ(CCNC(C)=O)c2c1 |  | 16 |  |  |  | 
